This assay has as its system CD8F1 mice, subcutaneous mammary adenocarcinoma, T/C%. In words: NCI In Vivo Anticancer Drug Screen. Data for tumor model Mammary Adenocarcinoma CD8F1 (subcutaneous) in CD8F1. Conditions: higher = larger tumour. As to the method:
The antitumor activity of compounds was measured in mice bearing transplantable tumors. Survival or tumor size were measured and the results are expressed as the measurement made in the treated group (T) divided by the measurement made in the vehicle treated control group (C). The tumor model used in this assay is Mammary Adenocarcinoma CD8F1 (subcutaneous) in CD8F1

Several values for one entry are separate records, joined by “and”; a condition that tells them apart may be missing. Identical values can stand only once. Results filed as inconclusive are left out.

As for `COc1cc(NCc2ccc3nc(N)nc(N)c3c2C)cc(OC)c1OC`, the T/C by setting is: (endpoint: median tumor weight (est.), dose: 1.88 mg/kg/injection, schedule: Q07DX005 (ip), vehicle: sodium bicarbonate) 82 % of control; (endpoint: median tumor weight (est.), dose: 3.75 mg/kg/injection, schedule: Q07DX005 (ip), vehicle: sodium bicarbonate) 63 % of control and 82 % of control; (endpoint: median tumor weight (est.), dose: 7.5 mg/kg/injection, schedule: Q07DX005 (ip), vehicle: sodium bicarbonate) 114 % of control; (endpoint: median tumor weight (est.), dose: 35.0 mg/kg/injection, schedule: Q04DX007 (ip), vehicle: water) 100 % of control; (endpoint: median tumor weight (est.), dose: 35.0 mg/kg/injection, schedule: Q07DX005 (ip), vehicle: water) 87 % of control; (endpoint: median tumor weight (est.), dose: 41.5 mg/kg/injection, schedule: Q04DX007 (ip), vehicle: water) 59 % of control. Moreover, the T/C is, setting by setting: (endpoint: median tumor weight (est.), dose: 44.0 mg/kg/injection, schedule: Q07DX005 (ip), vehicle: water) 44 % of control; (endpoint: median tumor weight (est.), dose: 46.0 mg/kg/injection, schedule: Q07DX005 (ip), vehicle: water) 26 % of control; (endpoint: median tumor weight (est.), dose: 47.4 mg/kg/injection, schedule: Q04DX007 (ip), vehicle: water) 29 % of control; (endpoint: median tumor weight (est.), dose: 53.0 mg/kg/injection, schedule: Q04DX007 (ip), vehicle: water) 66 % of control; (endpoint: median tumor weight (est.), dose: 53.0 mg/kg/injection, schedule: Q07DX005 (ip), vehicle: saline) 5 % of control; (endpoint: median tumor weight (est.), dose: 53.0 mg/kg/injection, schedule: Q07DX005 (ip), vehicle: suspension in saline) 67 % of control. Moreover, the T/C was 29 % of control (endpoint: median tumor weight (est.), dose: 62.2 mg/kg/injection, schedule: Q04DX007 (ip), vehicle: water); 111 % of control (endpoint: median tumor weight (est.), dose: 66.0 mg/kg/injection, schedule: Q07DX005 (ip), vehicle: water); 44 % of control (endpoint: median tumor weight (est.), dose: 70.0 mg/kg/injection, schedule: Q07DX005 (ip), vehicle: water); 45 % of control (endpoint: median tumor weight (est.), dose: 71.1 mg/kg/injection, schedule: Q04DX007 (ip), vehicle: water); 121 % of control (endpoint: median tumor weight (est.), dose: 80.0 mg/kg/injection, schedule: Q04DX007 (ip), vehicle: water); 23 % of control (endpoint: median tumor weight (est.), dose: 80.0 mg/kg/injection, schedule: Q07DX005 (ip), vehicle: suspension in saline). Besides, the T/C (endpoint: median tumor weight (est.), dose: 99.0 mg/kg/injection, schedule: Q07DX005 (ip), vehicle: water) is 24 % of control; the T/C (endpoint: median tumor weight (est.), dose: 105.0 mg/kg/injection, schedule: Q07DX005 (ip), vehicle: water) was 41 % of control; the T/C (endpoint: median tumor weight (est.), dose: 120.0 mg/kg/injection, schedule: Q04DX007 (ip), vehicle: water) is 8 % of control; the T/C (endpoint: median tumor weight (est.), dose: 120.0 mg/kg/injection, schedule: Q07DX005 (ip), vehicle: sodium bicarbonate) is 37 % of control.

For the molecule `CC[C@H]1CN2CCc3cc(OC)c(OC)cc3[C@@H]2C[C@@H]1C[C@H]1NCCc2cc(O)c(OC)cc21`, the T/C (endpoint: median tumor weight (est.), dose: 2.0 mg/kg/injection, schedule: Q07DX005 (ip), vehicle: saline) is 67 % of control; the T/C (endpoint: median tumor weight (est.), dose: 4.0 mg/kg/injection, schedule: Q07DX005 (ip), vehicle: saline) was 95 % of control; the T/C (endpoint: median tumor weight (est.), dose: 8.0 mg/kg/injection, schedule: Q07DX005 (ip), vehicle: saline) was 92 % of control; the T/C (endpoint: median tumor weight (est.), dose: 16.0 mg/kg/injection, schedule: Q07DX005 (ip), vehicle: saline) was 47 % of control.

As to `C[C@@H]1C[C@@H]([C@H](O)CC2CC(=O)NC(=O)C2)C(=O)[C@@H](C)C1`, the T/C was 57 % of control (endpoint: median tumor weight change, dose: 62.5 mg/kg/injection, schedule: Q01DX001 (ip), vehicle: suspension in saline); 72 % of control (endpoint: median tumor weight change, dose: 125.0 mg/kg/injection, schedule: Q01DX001 (ip), vehicle: suspension in saline); 57 % of control (endpoint: median tumor weight change, dose: 250.0 mg/kg/injection, schedule: Q01DX001 (ip), vehicle: suspension in saline).

In the case of `CCCCCc1cc(/C=C2/N=C(c3ccc[nH]3)C=C2OC)[nH]c1C`, the T/C was 169 % of control (endpoint: median tumor weight (est.), dose: 0.5 mg/kg/injection, schedule: Q07DX005 (ip), vehicle: suspension in saline); 85 % of control (endpoint: median tumor weight (est.), dose: 1.0 mg/kg/injection, schedule: Q07DX005 (ip), vehicle: suspension in saline); 82 % of control (endpoint: median tumor weight (est.), dose: 4.0 mg/kg/injection, schedule: Q07DX005 (ip), vehicle: suspension in saline); 95 % of control (endpoint: median tumor weight (est.), dose: 8.0 mg/kg/injection, schedule: Q07DX005 (ip), vehicle: suspension in saline).

With `c1ccc(CN2CCOC2)cc1`, the T/C was 51 % of control (endpoint: median tumor weight (est.), dose: 12.5 mg/kg/injection, schedule: Q07DX005 (ip), vehicle: suspension in saline); 43 % of control (endpoint: median tumor weight (est.), dose: 25.0 mg/kg/injection, schedule: Q07DX005 (ip), vehicle: suspension in saline); 62 % of control (endpoint: median tumor weight (est.), dose: 50.0 mg/kg/injection, schedule: Q07DX005 (ip), vehicle: suspension in saline); 87 % of control (endpoint: median tumor weight (est.), dose: 100.0 mg/kg/injection, schedule: Q07DX005 (ip), vehicle: suspension in saline).

For the molecule `CC(=O)[C@H]1CC[C@H]2[C@@H]3C[C@H](C)C4=CC(=O)CC[C@]4(C)[C@H]3C(=O)C[C@]12C`, the T/C is 67 % of control (endpoint: mean tumor weight (est.), dose: 200.0 mg/kg/injection, schedule: Q07DX003 (ip), vehicle: saline); 61 % of control (endpoint: mean tumor weight (est.), dose: 400.0 mg/kg/injection, schedule: Q07DX003 (ip), vehicle: saline); 86 % of control (endpoint: mean tumor weight (est.), dose: 800.0 mg/kg/injection, schedule: Q07DX003 (ip), vehicle: saline); 107 % of control (endpoint: mean tumor weight, dose: 200.0 mg/kg/injection, schedule: Q07DX005 (ip), vehicle: saline); 63 % of control (endpoint: mean tumor weight, dose: 200.0 mg/kg/injection, schedule: Q07DX006 (ip), vehicle: saline); 90 % of control (endpoint: mean tumor weight, dose: 200.0 mg/kg/injection, schedule: Q07DX007 (ip), vehicle: saline). In addition, the T/C by setting is: (endpoint: mean tumor weight, dose: 400.0 mg/kg/injection, schedule: Q07DX005 (ip), vehicle: saline) 54 % of control; (endpoint: mean tumor weight, dose: 400.0 mg/kg/injection, schedule: Q07DX006 (ip), vehicle: saline) 39 % of control; (endpoint: mean tumor weight, dose: 400.0 mg/kg/injection, schedule: Q07DX007 (ip), vehicle: saline) 25 % of control; (endpoint: mean tumor weight, dose: 800.0 mg/kg/injection, schedule: Q07DX005 (ip), vehicle: saline) 36 % of control; (endpoint: mean tumor weight, dose: 800.0 mg/kg/injection, schedule: Q07DX007 (ip), vehicle: saline) 49 % of control.

On to `NC(Cc1ccc(N(CCCl)CCCl)cc1)C(=O)O` (stereo unspecified), for which the T/C is 39 % of control (endpoint: median tumor weight (est.), dose: 2.0 mg/kg/injection, schedule: Q07DX005 (ip), vehicle: Klucel (hydroxypropylcellulose) (HPC)) and 33 % of control (endpoint: median tumor weight (est.), dose: 4.0 mg/kg/injection, schedule: Q07DX005 (ip), vehicle: Klucel (hydroxypropylcellulose) (HPC)).

As for `Cc1c2ccccc2c(C)c2c1cc(C(=O)O)c1ccccc12`, the T/C (endpoint: median tumor weight change, dose: 50.0 mg/kg/injection, schedule: Q01DX001 (ip), vehicle: sodium bicarbonate) was 83 % of control; the T/C (endpoint: median tumor weight change, dose: 100.0 mg/kg/injection, schedule: Q01DX001 (ip), vehicle: sodium bicarbonate) is 82 % of control; the T/C (endpoint: median tumor weight change, dose: 200.0 mg/kg/injection, schedule: Q01DX001 (ip), vehicle: sodium bicarbonate) is 155 % of control; the T/C (endpoint: median tumor weight change, dose: 400.0 mg/kg/injection, schedule: Q01DX001 (ip), vehicle: sodium bicarbonate) is 153 % of control.

Consider `CC1OC1C(=O)C1(O)C(C)C(O)C23OC2(C(O)c2c(O)cccc2C3=O)C1O` (stereo unspecified), for which the T/C is 84 % of control and 100 % of control and 107 % of control (endpoint: median tumor weight change, dose: 10.0 mg/kg/injection, schedule: Q01DX001 (ip), vehicle: Klucel (hydroxypropylcellulose) (HPC)); 66 % of control and 87 % of control (endpoint: median tumor weight change, dose: 40.0 mg/kg/injection, schedule: Q01DX001 (ip), vehicle: Klucel (hydroxypropylcellulose) (HPC)).

Consider `COc1cc(C(=O)c2cc3c(cc2C)OCO3)cc(OC)c1OC`, for which the T/C is, setting by setting: (endpoint: median tumor weight change, dose: 125.0 mg/kg/injection, schedule: Q01DX001 (ip), vehicle: Klucel (hydroxypropylcellulose) (HPC)) 59 % of control and 75 % of control; (endpoint: median tumor weight change, dose: 250.0 mg/kg/injection, schedule: Q01DX001 (ip), vehicle: Klucel (hydroxypropylcellulose) (HPC)) 47 % of control and 54 % of control; (endpoint: median tumor weight change, dose: 500.0 mg/kg/injection, schedule: Q01DX001 (ip), vehicle: Klucel (hydroxypropylcellulose) (HPC)) 70 % of control.

Turning to `O=Cc1ccc([N+](=O)[O-])s1`, the T/C is 225 % of control (endpoint: median tumor weight (est.), dose: 6.25 mg/kg/injection, schedule: Q07DX005 (ip), vehicle: saline with Tween-80); 71 % of control (endpoint: median tumor weight (est.), dose: 12.5 mg/kg/injection, schedule: Q07DX005 (ip), vehicle: saline with Tween-80); 295 % of control (endpoint: median tumor weight (est.), dose: 25.0 mg/kg/injection, schedule: Q07DX005 (ip), vehicle: saline with Tween-80); 156 % of control (endpoint: median tumor weight (est.), dose: 50.0 mg/kg/injection, schedule: Q07DX005 (ip), vehicle: saline with Tween-80).

Take `O=C1N[C@@H]2C(=C[C@H](O)[C@@H](O)[C@H]2O)c2cc3c(c(O)c21)OCO3`: the T/C reads like this: (endpoint: median tumor weight change, dose: 3.12 mg/kg/injection, schedule: Q01DX001 (ip), vehicle: saline with Tween-80) 75 % of control; (endpoint: median tumor weight change, dose: 6.25 mg/kg/injection, schedule: Q01DX001 (ip), vehicle: saline with Tween-80) 90 % of control; (endpoint: median tumor weight change, dose: 12.5 mg/kg/injection, schedule: Q01DX001 (ip), vehicle: saline with Tween-80) 60 % of control.
